This is an account of results in patent publication US20210205323A1, “MAINTENANCE THERAPY OF A PARP INHIBITOR IN TREATING GASTRIC CANCER” (BEIGENE, LTD., priority 2018, published 2021).

The subject of one test is gastric cancer. The note with it: olaparib added to second-line chemotherapy with paclitaxel; phase III; cited from earlier work.
The subject of test [1] is BBGA087 patient derived gastric cancer xenograft. Description: Pamiparib as maintenance therapy after oxaliplatin + 5-FU treatment in the xenograft model. The test is classed as in vivo, female nod-scid mice. The protocol: (§1) Female nod-scid mice were subcutaneously implanted with BBGA087 patient derived gastric tumor tissue fragments (3×3×3 mm3) in the right flank. After inoculation, tumor volume and body weight were measured twice weekly and calculated using the formula: V=0.5×(a×b2) where a and b were the long and short diameters of the tumor, respectively. When the average tumor size reached 200 mm3, animals were randomly assigned into 3 groups. Animals were treated with vehicle (0.5% methylcellulose, 0.5% MC), pamiparib, oxaliplatin plus 5-Fluorouracil (5-FU), respectively. BGB290 was administered at 6 mg/kg by oral gavage (p.o.) twice daily (BID), oxaliplatin was administered by intraperitoneal (i.p.) injection once per week (QW) for three weeks, and 5-FU was administered by intraperitoneal (i.p.) injection once daily with 5 days per week.
After 28 days, mice treated with oxaliplatin and 5-FU were reallocated into 2 groups according to the tumor volume, and were treated with either placebo (0.5% MC) or pamiparib as maintenance therapy.
(§2) Data is presented as mean tumor volume+standard error of the mean (SEM). Tumor growth inhibition (TGI) is calculated using the following formula: […]

Test [2] shares this test system. Description: Efficacy of pamiparib and oxaliplatin + 5-FU on tumor growth in a patient derived gastric cancer xenograft. The test is classed as in vivo, female nod-scid mice. The note with it: BBGA087 model, pamiparib 6 mg/kg p.o. BID. As for the experimental part: as §1, §2
(In general: A xenograft is tissue or cells of one species grown in another, often human tumour cells in immunodeficient mice.)

A further test deals with PBMCs. Description: Clinical pharmacodynamic target modulation in PBMCs. In kind it is in vivo. The note with it: in the clinic; recommended Phase 2 dose 60 mg BID.

For the compound `O=C(c1cc(Cc2n[nH]c(=O)c3ccccc23)ccc1F)N1CCN(C(=O)C2CC2)CC1` [olaparib], the “overall survival (OS) compared with paclitaxel and placebo” value with gastric cancer was “failed to improve overall survival”.

As for `C[C@]12CCCN1CC1=NNC(=O)c3cc(F)cc4[nH]c2c1c34` [pamiparib], in test [1] (maintenance therapy 6 mg/kg BID after 28 days of oxaliplatin + 5-FU, Day 32), the “Mean Tumor Volume on Day 32” value is 222 mm3. Further, the “TGI (%) on Day 32” value in test [1] (maintenance therapy 6 mg/kg BID after 28 days of oxaliplatin + 5-FU, versus placebo (0.5% MC), Day 32) is given as 96%. In test [1] (pamiparib 6 mg/kg BID as maintenance versus placebo (0.5% MC) after oxaliplatin + 5-FU), the “tumor relapse on maintenance therapy” value is listed as “tumor relapse was delayed”. The “Mean Tumor Volume on Day 28” value in test [2] (oxaliplatin 5 mg/kg + 5-FU 15 mg/kg i.p.) worked out at 921 mm3. Besides, the “TGI (%) on Day 28” value in test [2] (oxaliplatin 5 mg/kg i.p. QW*3 plus 5-FU 15 mg/kg i.p. QD*5/week*3) is on record as 42%. The “dose level achieving maximum pharmacodynamic target modulation in PBMCs” value with PBMCs is reported as 10 mg BID.
